For test [1], the system named is db/db mice. In words: Antidiabetic effects in db/db mice, Example B (2 weeks daily oral dosing). In kind it is in vivo, mouse. The text has this:
db/db mice have a defect in leptin signaling, leading to hyperphagia, obesity and diabetes. Moreover, unlike ob/ob mice on a C57BL/6J background, db/db mice on a C57BL/KS background undergo failure of their insulin-producing pancreatic islet cells, resulting in progression from hyperinsulinemia (associated with peripheral insulin resistance) to hypoinsulinemic diabetes.
Male obese (db/db homozygote) C57BL/Ksola mice approximately 8 weeks of age, were obtained from Jackson Labs (Bar Harbor, Me.) and randomly assigned into groups of 5-7 animals such that the body weights (50-55 g) and serum glucose levels (≧300 mg/dl in fed state) were similar between groups; male lean (db/+heterozygote) mice served as cohort controls. A minimum of 7 days was allowed for adaptation after arrival. All animals were maintained under controlled temperature (23° C.), relative humidity (50±5%) and light (7:00-19:00), and allowed free access to standard chow (Formulab Diet 5008, Quality Lab Products, Elkridge, Md.) and water.
Treatment cohorts were given daily oral doses of Vehicle (1% hydroxypropylmethylcellulose), Compounds BI, CE, BT, BV, […] or Fenofibrate for 2 weeks. At the end of the treatment period 100 μl of venous blood was withdrawn in a heparinized capillary tube from the retro-orbital sinus of db/db mice for serum chemistry analysis.

In test [2] the test system is db/db mice. In words: Antidiabetic effects in db/db mice, Example C (17 days daily oral dosing). In kind it is in vivo, mouse. The text has this:
C57BL/Ksola (db/db) mice have a defect in leptin signaling, leading to hyperphagia, obesity and diabetes. Moreover, unlike ob/ob mice on a C57BL/6J background, db/db mice on a C57BLKS background undergo failure of their insulin-producing pancreatic islet cells, resulting in progression from hyperinsulinemia (associated with peripheral insulin resistance) to hypoinsulinemic diabetes.
Male obese (db/db homozygote) C57BL/Ksola mice approximately 8 weeks of age, were obtained from Jackson Labs (Bar Harbor, Me.) and sorted into groups of 7 animals each animals such that the body weights (40-45 g) and serum glucose levels (≧300 mg/dl in fed state) were similar between groups. A minimum of 7 days was allowed for adaptation after arrival. All animals were maintained under controlled temperature (23° C.), relative humidity (50±5%) and light (7:00-19:00), and allowed free access to standard chow (Formulab Diet 5008, Quality Lab Products, Elkridge, Md.) and water.
Treatment cohorts were given daily oral doses of vehicle (1% hydroxypropylmethylcellulose), Compounds BI, CF, CG, or phenylacetate for 17 days. At the end of the treatment period, blood samples were collected and serum glucose and triglycerides were measured.

Test [3] deals with male ob/ob mouse model of Type II diabetes. Nature of the test: Antidiabetic effects in ob/ob mice (serum chemistry after 2 weeks daily oral dosing). In kind it is in vivo. More on the design: key to Glucose ± SEM: serum glucose in mg/dl; Triglycerides ± SEM / Free Fatty Acids ± SEM: unit not given here. The following applies: for Glucose / Glucose (% of Control): 2 weeks; for Glucose ± SEM: Table 15; for reduction in blood glucose (in words) / reduction in free fatty acids (in words) / reduction in triglycerides (in words): 2 weeks daily oral dosing. How it is done:
Obese (ob/ob) mice have a defect in the protein leptin, a regulator of appetite and fuel metabolism, leading to hyperphagia, obesity and diabetes.
Male obese (ob/ob homozygote) C57BL/6J mice, approximately 8 weeks of age, were obtained from Jackson Labs (Bar Harbor, Me.) and randomly assigned into groups of 5 animals each such that the body weights (45-50 g) and serum glucose levels (≧300 mg/dl in fed state) were similar between groups. A minimum of 7 days was allowed for adaptation after arrival. All animals were maintained under controlled temperature (23° C.), relative humidity (50±5%) and light (7:00-19:00), and allowed free access to standard chow (Formulab Diet 5020 Quality Lab Products, Elkridge, Md.) and water.
Treatment cohorts were given daily oral doses of vehicle (1% hydroxypropyl-methylcellulose), Compounds BI, CF, CA, CB, CC, or CD for 2 weeks. At the end of the treatment period 100 μl of venous blood was withdrawn in a heparinized capillary tube from the retro-orbital sinus of ob/ob mice for serum chemistry analysis.

The target of test [4] is T1, Mouse PPARγ LBD fusion protein (Mus musculus, UniProt P37238).
T1 sequence (P37238 238-503): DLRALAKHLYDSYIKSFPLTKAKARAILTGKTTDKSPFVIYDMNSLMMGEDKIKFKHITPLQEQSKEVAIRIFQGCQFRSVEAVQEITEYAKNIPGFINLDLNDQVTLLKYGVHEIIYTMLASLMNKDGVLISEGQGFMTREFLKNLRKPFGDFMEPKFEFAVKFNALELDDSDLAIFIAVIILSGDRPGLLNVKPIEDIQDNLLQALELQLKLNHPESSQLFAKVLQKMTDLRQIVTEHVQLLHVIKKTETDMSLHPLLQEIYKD
Nature of the test: Transcription activation potential, GAL4 luciferase reporter in Hepa1.6 cells. The test is classed as cell-based. How it is done: Cells were seeded in 24 well plates the day prior to transfection at 5×10^4−2×10^5 cells/well, depending upon cell type. Cells were transfected using Lipofectamine 2000 reagent from Invitrogen. A total of 0.8 μg DNA/well was added to 50 μL of Optimem Reduced Serum media (serum free; Gibco). Lipofectamine 2000 was added (2.5 μL/well) to another tube containing 50 μL of Optimem media. Plasmid DNA was added at a ratio of 4:3 (reporter:activator); where appropriate, salmon sperm DNA was substituted for activator expressing plasmid. […] DNA constructs containing the mouse PPARα or PPARγ LBD fused to the GAL4 DNA binding domain were also used. The two solutions were incubated at room temperature for 5 min, and then combined. The combined solution was incubated at room temperature for approximately 30 min. Cells were washed once with PBS, and 100 μL of transfection mix added to each well. Plates were incubated at 37° C. in a 5% CO2 incubator for 4.5 hr, followed by aspiration of the transfection mix, with plates refed using EMEM complete media (supplemented with 10% FBS, 1× Glutamine). 24 hr post-transfection, plates were treated with the appropriate compounds in EMEM complete media, followed by washing once with PBS and addition of 100 μL 1× reporter lysis buffer/well (Promega) 24 hr after treatment. Plates went through one freeze/thaw cycle prior to analysis. Approximately 10 μL of lysate was added to 100 μL of firefly luciferase substrate, mixed by pipetting, and analyzed on a luminometer for 10 s using the integration function (relative luciferase units/RLU) or on a Microbeta Trilux (luciferase counts per second/LCPS). Each treatment was performed in triplicate, and in multiple, separate experiments.
(In general: A reporter such as luciferase makes a cellular process visible.)

The mark [5] stands for this setting: serum, 2 weeks daily oral, dose not given in Table 17 (see Table 16).

With `Cc1cccc(C)c1COc1cccc(C(=O)CCC(=O)O)c1` [Compound BI, 4-(3-(2,6-Dimethylbenzyloxy)phenyl)-4-oxobutyric acid], the “Glucose (% of Control)” value is given as 50 ± 6 % of Control with db/db mice [1] (100 mg/kg daily oral, 2 weeks); 71.0 ± 7.0 % of Control in test [3] (30 mg/kg daily oral); 59.0 ± 5.0 % of Control in test [3] (60 mg/kg daily oral); 46.0 ± 1.0 % of Control in test [3] (100 mg/kg daily oral). Besides, the “Glucose” value in the test on db/db mice [1] (nonfasting, 100 mg/kg daily oral, 2 weeks) was 347.0 ± 43.1 mg/dL; in test [3] (30 mg/kg daily oral), 301.4 ± 29.0 mg/dL; in test [3] (60 mg/kg daily oral) it was 248.8 ± 20.0 mg/dL; in test [3] (100 mg/kg daily oral) it was 196.3 ± 6.0 mg/dL. For the same compound, the “Free Fatty Acids ± SEM” value in the test on db/db mice [1] (setting [5]) turned out to be 1997.2 ± 196.4 µM; in test [3] (30 mg/kg), 1272.8 ± 32.5; in test [3] (100 mg/kg) it was 1245.4 ± 20.0. Besides, the results for the “Triglycerides ± SEM” value (in the test with db/db mice [1] (setting [5]); in test [3] (30 mg/kg); in test [3] (100 mg/kg)) were 77.8 ± 5.3 mg/dL, 66.6 ± 3.6 and 55.0 ± 3.4, respectively. In addition, the “Glucose mg/dL (±SEM)” value stood at 472 ± 54 mg/dL in the test on db/db mice [2] (100 mg/kg daily oral) and 348 ± 67 mg/dL with db/db mice [2] (150 mg/kg daily oral). Besides, the results for the “Triglycerides” value in the test on db/db mice [2] (100 mg/kg daily oral) and in the test with db/db mice [2] (150 mg/kg daily oral) were 116 ± 4 mg/dL and 90 ± 6 mg/dL, respectively. In addition, the “Glucose ± SEM” value in test [3] (30 mg/kg) was determined as 301.4 ± 29.0; in test [3] (100 mg/kg) it was 196.3 ± 6.0. For the same compound, the “reduction in blood glucose (in words)” value in test [3] (100 mg/kg) is reported as “significant reduction”. Also, in test [3] (100 mg/kg), the “reduction in free fatty acids (in words)” value was “significant reduction”. Besides, in test [3] (100 mg/kg), the “reduction in triglycerides (in words)” value is “significant reduction”. Further, the “transcription activation potential (luciferase) ± standard deviation” value in test [4] (1 μM) came to 210 ± 51 RLU; in test [4] (3 μM), 256 ± 33 RLU; in test [4] (5 μM), 254 ± 81 RLU; in test [4] (7 μM) it was 265 ± 61 RLU; in test [4] (10 μM), 355 ± 53 RLU; in test [4] (30 μM) it was 441 ± 203 RLU. For the same compound, the “transcription activation potential (luciferase) ± standard deviation” value in test [4] (100 μM) is recorded as 820 ± 353 RLU.
On to `Cc1cccc(C)c1COc1cccc(CC(=O)O)c1` [Compound CF, 3-(2,6-Dimethylbenzyloxy)phenylacetic acid], for which the results for the “Glucose mg/dL (±SEM)” value in the test with db/db mice [2] (30 mg/kg daily oral), in the test on db/db mice [2] (60 mg/kg daily oral) and with db/db mice [2] (100 mg/kg daily oral) were 586 ± 31 mg/dL, 604 ± 36 mg/dL and 391 ± 61 mg/dL, respectively. The results for the “Triglycerides” value with db/db mice [2] (30 mg/kg daily oral), with db/db mice [2] (60 mg/kg daily oral) and in the test on db/db mice [2] (100 mg/kg daily oral) were 156 ± 20 mg/dL, 120 ± 13 mg/dL and 92 ± 6 mg/dL, respectively. Further, in test [3] (60 mg/kg daily oral), the “Glucose” value worked out at 161.2 ± 14.0 mg/dL. In addition, the “Glucose (% of Control)” value in test [3] (60 mg/kg daily oral) is on record as 38.0 ± 3.0 % of Control. The “reduction in blood glucose (in words)” value in test [3] (60 mg/kg) is recorded as “significant reduction”. In addition, the “reduction in free fatty acids (in words)” value in test [3] (60 mg/kg) is reported as “significant reduction”. Further, the “reduction in triglycerides (in words)” value in test [3] (60 mg/kg) is recorded as “significant reduction”. The “transcription activation potential (luciferase) ± standard deviation” value in test [4] (1 μM) is listed as 361 ± 138 RLU; in test [4] (3 μM), 602 ± 144 RLU; in test [4] (5 μM), 710 ± 87 RLU; in test [4] (7 μM), 786 ± 418 RLU; in test [4] (10 μM) it was 1140 ± 111 RLU; in test [4] (30 μM), 1253 ± 554 RLU. Moreover, the “transcription activation potential (luciferase) ± standard deviation” value in test [4] (100 μM) is recorded as 1534 ± 608 RLU.
In the case of `Cc1cccc(C)c1COc1cccc(C(=O)O)c1` [Compound CG, 3-(2,6-Dimethylbenzyloxy)benzoic acid], in the test with db/db mice [2] (100 mg/kg daily oral), the “Glucose mg/dL (±SEM)” value turned out to be 753 ± 24 mg/dL and the “Triglycerides” value is recorded as 166 ± 14 mg/dL.

Source of the values: patent publication US7932290B2, “Method for the treatment of metabolic disorders” (Wellstat Biologics Corporation, priority 2003, dated 2011).
